The values that follow come from ChEMBL document CHEMBL1201862, “PubChem BioAssay data set” (2004).

Structures are written as SMILES. Activity calls are given as the source filed them.

Test [1] in a line: A375 melanoma cell viability loss, dose response, counter-screen for MITF inhibitor project, CellTiter-Glo luminescence, dry powder, set 4 (AID 624364).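 Further: A375 melanoma cells are MITF independent so this is a counter screen.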 The note with it: A-375. The test is classed as functional, cell-based. On the technique in general: The purpose of a counterscreen is to sort out artefacts and off-target activity.
The next test concerns the target Hexokinase-1 (Homo sapiens, UniProt P19367). The test can be described thus: hexokinase 1 activators, dose response, selectivity assay for HKDC1 activator project, biochemical (AID 504762). The class given is functional.
The target of test [2] is DNA (cytosine-5)-methyltransferase 1 (Homo sapiens, UniProt P26358). Nature of the test: DNMT1 methyltransferase inhibitors, confirmation, biochemical, fluorescent molecular beacon (AID 602386). The test is classed as functional.
Chain of DNA (cytosine-5)-methyltransferase 1 (P26358 whole entry): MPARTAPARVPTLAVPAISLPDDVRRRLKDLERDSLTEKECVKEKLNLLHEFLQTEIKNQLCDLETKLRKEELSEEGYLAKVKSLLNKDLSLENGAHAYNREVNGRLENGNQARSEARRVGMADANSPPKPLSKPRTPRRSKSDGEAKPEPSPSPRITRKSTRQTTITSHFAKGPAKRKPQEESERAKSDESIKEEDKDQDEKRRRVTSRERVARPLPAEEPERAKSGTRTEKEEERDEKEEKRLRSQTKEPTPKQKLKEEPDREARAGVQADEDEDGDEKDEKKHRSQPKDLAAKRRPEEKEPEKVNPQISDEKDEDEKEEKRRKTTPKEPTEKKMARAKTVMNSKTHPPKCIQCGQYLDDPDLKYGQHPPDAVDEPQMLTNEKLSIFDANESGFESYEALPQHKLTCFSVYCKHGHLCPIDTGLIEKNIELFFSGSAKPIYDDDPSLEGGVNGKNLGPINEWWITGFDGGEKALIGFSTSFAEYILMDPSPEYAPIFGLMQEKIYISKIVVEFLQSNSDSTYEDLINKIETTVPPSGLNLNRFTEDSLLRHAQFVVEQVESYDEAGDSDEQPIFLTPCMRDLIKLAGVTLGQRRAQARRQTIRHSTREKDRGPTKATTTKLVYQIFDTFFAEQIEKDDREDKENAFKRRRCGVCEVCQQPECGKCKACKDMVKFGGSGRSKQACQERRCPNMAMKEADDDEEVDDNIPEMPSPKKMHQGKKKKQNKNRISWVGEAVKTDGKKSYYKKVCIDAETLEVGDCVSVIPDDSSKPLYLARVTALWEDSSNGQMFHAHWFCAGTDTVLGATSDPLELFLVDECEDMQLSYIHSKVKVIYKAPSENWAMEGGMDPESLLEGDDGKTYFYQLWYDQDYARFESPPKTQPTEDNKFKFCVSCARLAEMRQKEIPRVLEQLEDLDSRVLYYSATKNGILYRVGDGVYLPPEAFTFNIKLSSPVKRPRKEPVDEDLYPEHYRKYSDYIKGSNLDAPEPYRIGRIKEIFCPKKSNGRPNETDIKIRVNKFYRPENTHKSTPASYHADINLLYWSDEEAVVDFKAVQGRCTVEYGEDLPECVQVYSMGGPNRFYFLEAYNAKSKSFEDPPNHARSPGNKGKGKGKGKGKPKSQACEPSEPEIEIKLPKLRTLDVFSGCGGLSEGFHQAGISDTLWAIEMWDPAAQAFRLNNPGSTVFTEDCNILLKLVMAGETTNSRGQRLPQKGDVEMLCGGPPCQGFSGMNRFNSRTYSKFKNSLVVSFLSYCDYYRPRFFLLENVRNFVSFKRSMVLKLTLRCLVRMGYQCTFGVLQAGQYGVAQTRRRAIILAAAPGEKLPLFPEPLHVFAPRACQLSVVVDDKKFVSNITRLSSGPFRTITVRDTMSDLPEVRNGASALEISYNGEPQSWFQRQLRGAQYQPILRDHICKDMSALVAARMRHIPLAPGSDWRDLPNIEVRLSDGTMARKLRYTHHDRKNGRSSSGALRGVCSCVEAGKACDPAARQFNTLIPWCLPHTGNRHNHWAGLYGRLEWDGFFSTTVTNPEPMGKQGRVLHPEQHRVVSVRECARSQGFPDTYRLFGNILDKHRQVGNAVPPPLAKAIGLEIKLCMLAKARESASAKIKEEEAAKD

Chain of Hexokinase-1 (P19367 whole entry): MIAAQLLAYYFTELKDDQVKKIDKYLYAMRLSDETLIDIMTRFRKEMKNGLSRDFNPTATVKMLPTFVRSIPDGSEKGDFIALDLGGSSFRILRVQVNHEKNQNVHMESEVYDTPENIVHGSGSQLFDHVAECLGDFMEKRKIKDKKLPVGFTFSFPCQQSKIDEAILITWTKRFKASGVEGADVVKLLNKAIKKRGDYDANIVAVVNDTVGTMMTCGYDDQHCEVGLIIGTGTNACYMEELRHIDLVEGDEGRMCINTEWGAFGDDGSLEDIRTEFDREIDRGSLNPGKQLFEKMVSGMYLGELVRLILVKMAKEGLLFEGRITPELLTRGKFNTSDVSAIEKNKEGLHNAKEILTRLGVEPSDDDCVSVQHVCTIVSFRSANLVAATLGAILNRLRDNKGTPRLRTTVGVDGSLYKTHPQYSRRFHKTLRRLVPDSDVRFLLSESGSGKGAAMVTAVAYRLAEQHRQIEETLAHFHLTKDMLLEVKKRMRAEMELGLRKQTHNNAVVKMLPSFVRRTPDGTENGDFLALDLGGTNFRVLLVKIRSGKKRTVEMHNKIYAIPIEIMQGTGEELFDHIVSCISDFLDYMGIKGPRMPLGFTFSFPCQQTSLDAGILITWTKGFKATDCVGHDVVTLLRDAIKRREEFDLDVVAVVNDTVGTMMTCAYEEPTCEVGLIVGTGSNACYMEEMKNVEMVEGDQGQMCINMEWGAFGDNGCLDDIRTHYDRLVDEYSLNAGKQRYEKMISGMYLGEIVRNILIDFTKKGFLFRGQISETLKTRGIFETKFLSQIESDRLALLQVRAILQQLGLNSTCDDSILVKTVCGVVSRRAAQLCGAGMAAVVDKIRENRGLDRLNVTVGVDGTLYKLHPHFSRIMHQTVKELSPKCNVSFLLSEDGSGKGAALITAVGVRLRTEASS

Broadly, the AC50 is the midpoint of the concentration-response curve, whichever way the signal moves. As to `O=C(CNc1cccc2ccccc12)N/N=C/c1ccc([N+](=O)[O-])o1`, the AC50 in test [1] is > 70 µM (inactive). For orientation: EC50 means the concentration that produces a half-maximal response. What is called IC50 is the midpoint of a concentration-inhibition curve. Turning to `O=C1NC(=S)N/C1=C/c1cc2c(cc1[N+](=O)[O-])OCO2`, the EC50 at Hexokinase-1 was 37.9 µM (inactive). Moreover, the IC50 in test [2] is 3.85 µM (active).
